Results taken from patent publication EP0343643B1, “Arylmethylenyl derivatives of thiazolidnones, imidazolidinones and oxazolidinones useful as antiallergy agents and antiinflamatory agents” (WARNER-LAMBERT COMPANY, priority 1988, dated 1989).

system: human basophils; experiment: Histamine release from human basophils (HHB), anti-IgE challenge; assay type: cell-based; parameters: key to HHB % Inhibition of Histamine Release at 33 µM: *: Indicates not active at 33 µM; details: 33 µM drug; human basophils challenged with anti-IgE; 2-thioxo-4-oxazolidinone series
Description: HISTAMINE RELEASE FROM HUMAN BASOPHILS (hereinafter HHB)
The HHB assay quantitates active histamine release, and its inhibition by drugs, from basophils of human blood. Thus, the assay provides evaluation of the compounds of formula I for treating the conditions or diseases as is the present invention. As described herein the assay includes modifications of the method described by R. P. Siraganian in "An Automated Continuous-Flow System for the Extraction and Fluorometric Analysis of Histamine", Anal. Biochem., 57, 383-394 (1974).
Blood is drawn from allergic donors (chosen on the basis of adequate histamine release induced by a challenge), using standard venipuncture methods, into Vacutainers with EDTA in water as anticoagulant. The blood samples are placed briefly on a rotary mixer. The blood is mixed with Hespan (hydroxy ethyl starch, 0.5 ml per 1.0 ml of blood), the tube inverted several times to mix and then left undisturbed at room temperature until a sharp separation is observed between the settled red cells and the leukocyte and platelet-rich plasma. This usually occurs within 35-45 minutes.
The plasma fraction is removed and centrifuged for 12 minutes at 4°C at 1050 RPM (100 Xg). The platelets remain in the plasma and are discarded. The pelleted leukocytes are shaken gently to disrupt the cell button and washed twice with HA buffer containing 0.005 M EDTA and resuspended in HACM buffer to approximately one-quarter the original blood volume. A sample is prepared for Hematology, where a total white blood cell and platelet count is done using a Coulter Counter.
Aliquots (0.1 ml) of cells are added to triplicate assay tubes containing 0.4 ml of either 6% perchloric acid (for total histamine content), vehicle control (for spontaneous release), or drug. The tubes are incubated at room temperature for 8 minutes, and then placed in a 37°C water bath for 2 more minutes. Buffer or challenge agents (at 37°C) are added to the tubes and they are incubated for an additional 45 minutes at 37°C in a shaking water bath. The tubes are then spun at 2000 RPM (1200 g) for 3 minutes to pellet the cells and the supernatants are removed and assayed for histamine by the fluorometric method.
A 300 µM stock solution of each test compound is prepared in distilled water, using 0.5 ml DMSO/100 ml and/or 0.2 ml of 1N NaOH or HCl and/or heat to aid in dissolution. Five ml of the stock solution is diluted (1:2) with 5 ml of two times concentrated HACM buffer to yield the stock working concentration of 150 µM. When added to the cells and stimulus, a final test concentration of 100 µM drug results. Further dilutions are made with HACM buffer for 33, 10, 3.3, 1.0 µM, etc.
Short ragweed and house dust extracts (Greer Laboratories, Inc.) are supplied as aqueous extracts in stock concentrations of 40,000 and 10,000 protein nitrogen units per milliliter (PNU/ml), respectively. Aqueous solutions of anti-IgE antisera (rabbit-raised antibody) are purchased from Dako via Accurate Chemicals. The aqueous solutions of ragweed, house dust, and anti-IgE are diluted 1:2 with two times concentrated HACM and then further diluted with HACM to yield final stock concentrations of 6000 PNU/ml for ragweed and house dust and 1:50 dilution for the anti-IgE antisera. Further dilutions for working solutions are made in HACM buffer. All stock and working solutions are stored at 4°C. Working solutions comprise 1/6 of the final volume in the cell reaction, therefore, working solutions of challenge agents are made up six times the required final concentration.
In each experiment, cells are challenged according to the previously determined sensitivity of that donor to the particular challenge agent. Short ragweed and house dust concentrations are expressed in PNU/ml, and anti-IgE antisera is expressed as dilutions, e.g., IE-5 (1:100,000), 3E-5 (1:30,000), and IE-4 (1:10,000).
The total histamine concentration in the "total" (acid-treated) samples must be 15 ng/ml to be acceptable. […]

SMILES	inhibition at 33 µM [%]	HHB % Inhibition of Histamine Release at 33 µM
COc1cc(C=C2OC(=S)NC2=O)ccc1O [Example 4, 5-[(4-Hydroxy-3-methoxyphenyl)methylene]-2-thioxo-4-oxazolidinone]	77	
COc1ccc(C=C2OC(=S)NC2=O)cc1OC [Example 5, 5-[(3,4-Dimethoxyphenyl)methylene]-2-thioxo-4-oxazolidinone]	43	
COc1cc(C=C2OC(=S)NC2=O)cc(OC)c1O [Example 6, 5-[(4-Hydroxy-3,5-dimethoxyphenyl)methylene]-2-thioxo-4-oxazolidinone]	89	
COc1cc(C=C2OC(=S)NC2=O)cc(Br)c1O [Example 8, 5-[(3-Bromo-4-hydroxy-5-methoxyphenyl)methylene]-2-thioxo-4-oxazolidinone]		*
COc1cc(OC)c(OC)cc1C=C1OC(=S)NC1=O [Example 9, 2-Thioxo-5-[(2,4,5-trimethoxyphenyl)methylene]-4-oxazolidinone]		*
COc1cc(C=C2OC(=S)NC2=O)cc(OC)c1OC [Example 10, 2-Thioxo-5-[(3,4,5-trimethoxyphenyl)methylene]-4-oxazolidinone]	76	
O=C1NC(=S)OC1=Cc1ccc(O)c(Br)c1 [Example 13, 5-[(3-Bromo-4-hydroxyphenyl)methylene]-2-thioxo-4-oxazolidinone]	66	

same assay, conditions: 33 µM drug; human basophils challenged with anti-IgE; thiazolidinedione series

SMILES	inhibition at 33 µM [%]
COc1cc(C=C2SC(=O)NC2=O)cc(OC)c1O [Example 1, 5-[(4-Hydroxy-3,5-dimethoxyphenyl)methylene]-2,4-thiazolidinedione]	60
CC(C)(C)c1cc(C=C2SC(=O)NC2=O)cc(C(C)(C)C)c1O [Example 2, 5-[[3,5-Bis(1,1-dimethylethyl)-4-hydroxyphenyl]methylene]-2,4-thiazolidinedione]	49
COc1cc(C=C2SC(=O)NC2=O)ccc1O [Example 3]	81

biological target: T1, cellular 5-lipoxygenase (Rattus norvegicus, UniProt P12527); experiment: ARBL whole cell 5-lipoxygenase assay (LTB₄ formation in RBL-1 cells); assay type: cell-based; details: A23187 stimulated, LTB₄ by RIA, read-out: ARBL Percent inhibition of cellular 5-lipoxygenase at 16 µM
T1 construct: ARBL/ARBC Whole Cell 5-Lipoxygenase and Cyclooxygenase Assays; host or cells: RBL-1 (rat basophilic leukemia) cells
T1 sequence (P12527 1-673): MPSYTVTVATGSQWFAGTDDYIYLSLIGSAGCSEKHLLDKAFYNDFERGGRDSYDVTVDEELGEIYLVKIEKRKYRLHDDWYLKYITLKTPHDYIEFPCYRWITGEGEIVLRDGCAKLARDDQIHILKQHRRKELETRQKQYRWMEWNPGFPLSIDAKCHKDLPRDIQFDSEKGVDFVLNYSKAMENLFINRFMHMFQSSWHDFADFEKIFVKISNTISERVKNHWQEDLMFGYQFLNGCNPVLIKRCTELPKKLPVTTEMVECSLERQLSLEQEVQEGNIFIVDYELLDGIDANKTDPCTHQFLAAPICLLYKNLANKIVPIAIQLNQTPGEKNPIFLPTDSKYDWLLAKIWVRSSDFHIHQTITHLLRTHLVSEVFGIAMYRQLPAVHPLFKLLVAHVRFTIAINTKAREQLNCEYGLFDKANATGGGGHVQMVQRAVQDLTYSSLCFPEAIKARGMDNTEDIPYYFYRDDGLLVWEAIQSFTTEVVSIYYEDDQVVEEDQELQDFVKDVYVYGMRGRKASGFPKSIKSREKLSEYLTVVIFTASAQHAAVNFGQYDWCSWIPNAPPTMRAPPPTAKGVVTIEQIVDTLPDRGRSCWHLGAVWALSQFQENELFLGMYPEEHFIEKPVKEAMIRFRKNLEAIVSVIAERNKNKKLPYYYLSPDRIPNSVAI
Description: (§1) ARBL/ARBC Whole Cell 5-Lipoxygenase and Cyclooxygenase Assays The rat basophilic Leukemia cell line (RBL-1) was obtained from the American Type Culture Collection (Rockville, MD). Radioimmunoassay (RIA) kits of LTB₄ and PGF2α were obtained from Amersham (Arlington Heights, IL) and Seragen (Boston, MA), respectively. RBL-1 cells are grown in suspension culture in Eagle's minimum essential medium supplemented with 12% fetal bovine serum at 37°C in an incubator supplied with air-5% carbon dioxide. Cells are harvested by centrifugation. They are washed with cold phosphate buffered saline pH 7.4 (PBS; NaCl, 7.1 g; Na₂HPO₄, 1.15 g; KH₂PO₄, 0.2 g; and KCl, 0.2 g/l). Cells are finally suspended in PBS containing 1.0 mM calcium at a density of 2 x 10⁶ cells/ml. […] Calcium ionophore A23187 (5 µM) is added and cells are incubated for seven minutes at 37°C. The reaction is stopped by chilling the tubes on ice for ten minutes. Cells are separated by centrifugation and the supernatant is stored at -20°. Aliquots (100 µl) are analyzed for LTB₄ and PGF2α using radioimmunoassay kits as provided by the supplier. Table 1 contains biochemical data obtained from this whole cell assay as IC₅₀s which are calculated as the amount of test compound causing 50% inhibition of LTB₄ or PGF2α formation.

SMILES	inhibition at 16 µM [%]
CC(C)(C)c1cc(C=C2SC(=O)NC2=O)cc(C(C)(C)C)c1O [Example 2, 5-[[3,5-Bis(1,1-dimethylethyl)-4-hydroxyphenyl]methylene]-2,4-thiazolidinedione]	100
CC(C)(C)c1cc(C=C2OC(=S)NC2=O)cc(C(C)(C)C)c1O [Example 14]	92
CC(C)(C)c1cc(C=C2OC(=O)NC2=O)cc(C(C)(C)C)c1O [Example 15]	95
COc1cc(C=C2OC(=O)NC2=O)cc(OC)c1O [Example 16, 5-[(4-Hydroxy-3,5-dimethoxyphenyl)methylene]-2,4-oxazolidinedione]	67

system: cellular 5-cyclooxygenase; experiment: ARBC whole cell cyclooxygenase assay (PGF2α formation in RBL-1 cells); assay type: cell-based, rat; parameters: key: N inactive at screening concentration; details: A23187 stimulated, PGF2α by RIA
Description: as §1

SMILES	ARBC Percent inhibition of cellular 5-cyclooxygenase at 16 µM
CC(C)(C)c1cc(C=C2SC(=O)NC2=O)cc(C(C)(C)C)c1O [Example 2, 5-[[3,5-Bis(1,1-dimethylethyl)-4-hydroxyphenyl]methylene]-2,4-thiazolidinedione]	95%
CC(C)(C)c1cc(C=C2OC(=S)NC2=O)cc(C(C)(C)C)c1O [Example 14]	86%
CC(C)(C)c1cc(C=C2OC(=O)NC2=O)cc(C(C)(C)C)c1O [Example 15]	89%
COc1cc(C=C2OC(=O)NC2=O)cc(OC)c1O [Example 16, 5-[(4-Hydroxy-3,5-dimethoxyphenyl)methylene]-2,4-oxazolidinedione]	N^(4)

system: carrageenan footpad edema; experiment: Carrageenan-induced rat foot paw edema-2 (CFE-2) assay; assay type: in vivo; details: dose 1 mg/kg, dosed one hour before carrageenan, edema measured five hours after
Description: Carrageenan-Induced Rat Foot Paw Edema-2 (CEF-2) Assay: Protocol
Carrageenan solution (1% w/v) is prepared by dissolving 100 mg carrageenan (Marine Colloidal Div., Springfield, NJ) in 10 ml of sterile saline (0.9%) solution (Travenol). The solution is vortexed for 30 to 45 minutes. Animals are dosed with compound one hour before carrageenan challenge. Foot paw edema is induced by injecting 0.10 ml of the 1% carrageenan subcutaneously into the plantar portion of the right hind paw of each rat under light anesthesia. Initial foot paw volume is measured immediately following carrageenan challenge using mercury plethysmography (Buxco Electronics). Edemia is measured five hours after carrageenan. The difference between the five-hour and the initial paw volume is expressed as delta edema. The delta edema for each test group of animals is used to calculate the percent inhibition of edema achieved by the compound at the test dose compared with the vehicle control group. The ID₄₀ (the dose at which swelling is inhibited by 40%) is calculated by probit analysis for the dose at which 40 percent inhibition occurs.

SMILES	CFE Percent inhibition of carrageenan footpad edema (CFE) test
CC(C)(C)c1cc(C=C2SC(=O)NC2=O)cc(C(C)(C)C)c1O [Example 2, 5-[[3,5-Bis(1,1-dimethylethyl)-4-hydroxyphenyl]methylene]-2,4-thiazolidinedione]	31.8 (1) %
CC(C)(C)c1cc(C=C2OC(=S)NC2=O)cc(C(C)(C)C)c1O [Example 14]	44.1 (1) %
CC(C)(C)c1cc(C=C2OC(=O)NC2=O)cc(C(C)(C)C)c1O [Example 15]	18.5 (1) %

same assay, conditions: dose 3 mg/kg, dosed one hour before carrageenan, edema measured five hours after

SMILES	CFE Percent inhibition of carrageenan footpad edema (CFE) test
CC(C)(C)c1cc(C=C2SC(=O)NC2=O)cc(C(C)(C)C)c1O [Example 2, 5-[[3,5-Bis(1,1-dimethylethyl)-4-hydroxyphenyl]methylene]-2,4-thiazolidinedione]	39.8 (3) %
CC(C)(C)c1cc(C=C2OC(=S)NC2=O)cc(C(C)(C)C)c1O [Example 14]	41.1 (3) %
CC(C)(C)c1cc(C=C2OC(=O)NC2=O)cc(C(C)(C)C)c1O [Example 15]	23.5 (3) %

same assay, conditions: dose 10 mg/kg, dosed one hour before carrageenan, edema measured five hours after

SMILES	CFE Percent inhibition of carrageenan footpad edema (CFE) test
CC(C)(C)c1cc(C=C2SC(=O)NC2=O)cc(C(C)(C)C)c1O [Example 2, 5-[[3,5-Bis(1,1-dimethylethyl)-4-hydroxyphenyl]methylene]-2,4-thiazolidinedione]	53.7 (10) %
CC(C)(C)c1cc(C=C2OC(=S)NC2=O)cc(C(C)(C)C)c1O [Example 14]	32.1 (10) %
CC(C)(C)c1cc(C=C2OC(=O)NC2=O)cc(C(C)(C)C)c1O [Example 15]	36.8 (10) %

same assay, conditions: dose 30 mg/kg, dosed one hour before carrageenan, edema measured five hours after

SMILES	CFE Percent inhibition of carrageenan footpad edema (CFE) test
CC(C)(C)c1cc(C=C2SC(=O)NC2=O)cc(C(C)(C)C)c1O [Example 2, 5-[[3,5-Bis(1,1-dimethylethyl)-4-hydroxyphenyl]methylene]-2,4-thiazolidinedione]	58.8 (30) %
CC(C)(C)c1cc(C=C2OC(=S)NC2=O)cc(C(C)(C)C)c1O [Example 14]	40.4 (30) %
CC(C)(C)c1cc(C=C2OC(=O)NC2=O)cc(C(C)(C)C)c1O [Example 15]	39.4 (30) %
